Source: patent publication US5834487A, “Inhibition of 26S and 20S proteasome by indanones” (CV Therapeutics, priority 1996, dated 1998)
Values after ≈ are worked out from the molar mass of the structure shown.

Target: T1, 20S catalytic subunit of the proteasome (multicatalytic proteinase complex) (Bos taurus, UniProt Q32KL2)
T1 construct: was purified to homogeneity from bovine brain according to published methods; from tissue; host or cells: bovine brain
Experiment: 20S proteasome chymotryptic activity, fluorogenic peptide cleavage
Format: biochemical, bovine
Details: 50 μM succinyl-leu-leu-val-tyr-7-amino-4-methyl coumarin, 15 minutes at 37° C, pH7.5
Method: Compounds of this invention prepared according to the method of Example 1 were tested as follows. The 20S catalytic subunit of the proteasome (also known as the multicatalytic proteinase complex) was purified to homogeneity from bovine brain according to published methods (Wilk S. and Orlowski, M, 40 842 J. Neurochem (1983)). The chymotryptic activity of the complex is measured by the increase in fluorescence following cleavage of the substrate peptide succinyl-leucine-leucine-valine-tyrosine-7-amino-4-methyl coumarin. The standard in vitro assay consists of 2 μg 20S proteasome, 0.1-100 μg/ml proteasome inhibitor in 200 μl 50 mM HEPES, containing 0.1% sodium dodecyl sulphate, pH7.5. The proteolytic reaction is initiated by the addition of 50 μM fluorogenic peptide substrate and allowed to progress for 15 minutes at 37° C. The reaction is terminated by the addition of 100 μl of 100 mM acetate buffer, pH4.0. The rate of proteolysis is directly proportional to the amount of liberated aminomethylcoumarin which is measured by fluorescent spectroscopy (EX 370 nm, EM 430 nm).

Row | IC50 [mg/L] | SMILES
1 | > 10 | COc1ccc2c(c1)C(CC(=O)NC(Cc1c[nH]cn1)C(=O)NC(CC(C)C)C(N)=O)CC2=O (mixture of isomers) [Compound 99]
2 | > 50 | COc1ccc2c(c1)C(CC(=O)N(CCO)Cc1ccccc1)CC2=O (racemic) [Compound 166]
3 | > 10 | COc1ccc2c(c1)C(CC(=O)NCc1ccc3c(c1)OCO3)CC2=O (centres unmarked) [Compound 80]
4 | > 10 | COc1ccc2c(c1)C(CC(=O)N(C)CCO)CC2=O (centres unmarked) [Compound 115]
5 | > 10 | COc1ccc2c(c1)C(CC(=O)N1C(C)CCCC1C)CC2=O (centres unmarked) [Compound 75]
6 | > 10 | COc1ccc2c(c1)C(CC(=O)Nc1nc(C)cc(Cl)n1)CC2=O (racemic) [Compound 155]
7 | > 10 | COc1ccc2c(c1)C(CC(=O)Nc1ccc(I)cc1)CC2=O (racemic) [Compound 152]
8 | > 10 | COc1ccc2c(c1)C(CC(=O)NC(CC(C)C)C(=O)NC(Cc1c[nH]c3ccccc13)C(N)=O)CC2=O (mixture of isomers) [Compound 136]
9 | 10 | COc1ccc2c(c1)C(CC(=O)NC(CC(C)C)C(=O)NC(CC(C)C)C(=O)NCc1ccc([N+](=O)[O-])cc1)CC2=O (mixture of isomers) [Compound 195]
10 | > 50 | COc1ccc2c(c1)C(CC(=O)NC(CO)C(O)c1ccccc1)CC2=O (mixture of isomers) [Compound 165]
11 | > 10 | COc1ccc2c(c1)C(CC(=O)N1CCSCC1)CC2=O (centres unmarked) [Compound 106]
12 | > 10 | COc1ccc2c(c1)C(CC(=O)N1CCc3ccccc31)CC2=O (centres unmarked) [Compound 77]
13 | > 10 | COc1ccc2c(c1)C(CC(=O)NC(Cc1ccc(O)cc1)C(=O)NC(CC(C)C)C(N)=O)CC2=O (mixture of isomers) [Compound 102]
14 | > 10 | COc1ccc2c(c1)C(CC(=O)NC(CC(C)C)C(=O)NC(C(N)=O)c1ccccc1)CC2=O (mixture of isomers) [Compound 140]
15 | > 10 | CCCC[C@@H](NC(=O)[C@H](CC(C)C)NC(=O)CC1CC(=O)c2ccc(OC)cc21)C(=O)NCC(N)=O (some centres unmarked) [Compound 86]
16 | > 50 | COc1ccc2c(c1)C(CC(=O)NCc1ccc3c(c1)OCO3)CC2=O (racemic) [Compound 163]

Row | IC50 [mg/L] | SMILES
17 | > 10 | COc1ccc2c(c1)C(CC(=O)Nc1ccnc(S)n1)CC2=O (racemic) [Compound 158]
18 | > 10 | COc1ccc2c(c1)C(CC(=O)NC(CCCNC(=N)N)C(=O)NC(CC(C)C)C(N)=O)CC2=O (mixture of isomers) [Compound 93]
19 | > 10 | COc1ccc2c(c1)C(CC(=O)NC(CC(C)C)C(=O)NC(CC(C)C)C(=O)NCCCc1ccccc1)CC2=O (mixture of isomers) [Compound 186]
20 | > 10 | COc1ccc2c(c1)C(CC(=O)NC(CCCCN)C(=O)NC(CC(C)C)C(N)=O)CC2=O (mixture of isomers) [Compound 100]
21 | > 10 | COc1ccc2c(c1)C(CC(=O)NC(CC(C)C)C(=O)N(Cc1ccccc1)Cc1ccccc1)CC2=O (mixture of isomers) [Compound 199]
22 | > 10 | COCCCNC(=O)CC1CC(=O)c2ccc(OC)cc21 (centres unmarked) [Compound 71]
23 | > 10 | COc1ccc2c(c1)C(CC(=O)NC(CC(N)=O)C(=O)NC(CC(C)C)C(N)=O)CC2=O (mixture of isomers) [Compound 96]
24 | > 10 | COc1ccc2c(c1)C(CC(=O)NC(CC(C)C)C(=O)NC(CC(C)C)C(=O)NC(C(N)=O)C(C)C)CC2=O (mixture of isomers) [Compound 123]
25 | > 10 | COc1ccc2c(c1)C(CC(=O)NC(CO)C(O)c1ccccc1)CC2=O (centres unmarked) [Compound 118]
26 | > 10 | COc1ccc2c(c1)C(CC(=O)NC(CC(C)C)C(=O)NC(CC(C)C)C(=O)NCCO)CC2=O (mixture of isomers) [Compound 178]
27 | > 10 | COc1ccc2c(c1)C(CC(=O)Nc1cccc(I)c1)CC2=O (centres unmarked) [Compound 82]
28 | > 10 | CCC[C@@H](NC(=O)[C@H](CC(C)C)NC(=O)CC1CC(=O)c2ccc(OC)cc21)C(=O)NCC(N)=O (some centres unmarked) [Compound 87]
29 | > 50 | COCCN(CCOC)C(=O)CC1CC(=O)c2ccc(OC)cc21 (racemic) [Compound 169]
30 | > 10 | COc1ccc2c(c1)C(CC(=O)Nc1nc(O)c(C)c(O)n1)CC2=O (centres unmarked) [Compound 145]
31 | > 10 | COc1ccc2c(c1)C(CC(=O)N1CCC(O)CC1)CC2=O (centres unmarked) [Compound 81]

The remaining lines, values behind:

Row | SMILES | IC50 [mg/L]
32 | COc1ccc2c(c1)C(CC(=O)Nc1ccccc1)CC2=O (centres unmarked) [Compound 122] | > 10
33 | COc1ccc2c(c1)C(CC(=O)N1CCCC1C(=O)NC(CC(C)C)C(=O)NCC(N)=O)CC2=O (mixture of isomers) [Compound 49] | > 10
34 | CCCCC(NC(=O)CC1CC(=O)c2ccc(OC)cc21)C(=O)NC(CC(C)C)C(N)=O (mixture of isomers) [Compound 16] | > 10
35 | COc1ccc2c(c1)C(CC(=O)NC(CC1CCCCC1)C(=O)NC(CC(C)C)C(N)=O)CC2=O (mixture of isomers) [Compound 13] | > 10
36 | COc1ccc2c(c1)C(CC(=O)NCc1ccccn1)CC2=O (centres unmarked) [Compound 114] | > 10
37 | COc1ccc2c(c1)C(CC(=O)NC(C(=O)NC(CC(C)C)C(=O)NCC(N)=O)c1ccccc1)CC2=O (mixture of isomers) [Compound 48] | > 10
38 | COc1ccc2c(c1)C(CC(=O)N(CCC#N)Cc1cccnc1)CC2=O (centres unmarked) [Compound 116] | > 10
39 | COc1ccc2c(c1)C(CC(=O)N[C@@H](CC(C)C)C(=O)N[C@H](CC(C)C)C(=O)NCC(N)=O)CC2=O (single isomer, unassigned) [Compound 51] | 0.5 (≈ 0.995 µM)
40 | COc1ccc2c(c1)C(CC(=O)N1CCCC1CO)CC2=O (centres unmarked) [Compound 119] | > 10
41 | COc1ccc2c(c1)C(CC(=O)NC(CO)C(=O)NC(CC(C)C)C(N)=O)CC2=O (mixture of isomers) [Compound 61] | > 10
42 | COc1ccc2c(c1)C(CC(=O)N(Cc1ccccc1)Cc1ccccc1)CC2=O (centres unmarked) [Compound 39] | > 10
43 | COc1ccc2c(c1)C(CC(=O)NC(CC1CCCCC1)C(=O)NC(CC(C)C)C(=O)NCC(N)=O)CC2=O (mixture of isomers) [Compound 46] | > 10
44 | CCCC(NC(=O)CC1CC(=O)c2ccc(OC)cc21)C(=O)NC(CC(C)C)C(N)=O (mixture of isomers) [Compound 57] | > 10
45 | COc1ccc2c(c1)C(CC(=O)NC(Cc1ccccc1)C(N)=O)CC2=O (mixture of isomers) [Compound 24] | > 10
46 | COc1ccc2c(c1)C(CC(=O)NC(CC(C)C)C(=O)NC(CC(C)C)C(=O)NCC(N)=O)CC2=O (mixture of isomers) [Compound 18] | 5
47 | COc1ccc2c(c1)C(CC(=O)NC(CC(C)C)C(=O)NC(C)C(N)=O)CC2=O (mixture of isomers) [Compound 53] | > 10

Row | SMILES | IC50 [mg/L]
48 | COc1ccc2c(c1)C(CC(=O)NCC(=O)NCC(=O)NCC(N)=O)CC2=O (centres unmarked) [Compound 40] | > 10
49 | CCCC(NC(=O)CC1CC(=O)c2ccc(OC)cc21)C(N)=O (mixture of isomers) [Compound 10] | > 10
50 | COc1ccc2c(c1)C(CC(=O)N1CCCCC1)CC2=O (centres unmarked) [Compound 67] | > 10
51 | COc1ccc2c(c1)C(CC(=O)NCc1ccccc1)CC2=O (centres unmarked) [Compound 38] | > 10
52 | COc1ccc2c(c1)C(CC(=O)NC(CC(C)C)C(=O)NC(C)(C)C(N)=O)CC2=O (mixture of isomers) [Compound 11] | > 10
53 | COc1ccc2c(c1)C(CC(=O)NC(CC(C)C)C(=O)NC(C(N)=O)C(C)C)CC2=O (mixture of isomers) [Compound 33] | > 10
54 | CCCCC(NC(=O)CC1CC(=O)c2ccc(OC)cc21)C(N)=O (mixture of isomers) [Compound 9] | > 10
55 | COc1ccc2c(c1)C(CC(=O)NC(C(=O)NC(CC(C)C)C(N)=O)C(C)C)CC2=O (mixture of isomers) [Compound 30] | > 10
56 | COc1ccc2c(c1)C(CC(=O)NC(Cc1ccccc1)C(=O)NC(CC(C)C)C(=O)NCC(N)=O)CC2=O (mixture of isomers) [Compound 45] | > 10
57 | COc1ccc2c(c1)C(CC(=O)NC1CCC1)CC2=O (centres unmarked) [Compound 69] | > 10
58 | COc1ccc(CN(C(=O)CC2CC(=O)c3ccc(OC)cc32)c2ccccn2)cc1 (centres unmarked) [Compound 149] | > 10
59 | COc1ccc2c(c1)C(CC(=O)N1CCCC1C(N)=O)CC2=O (mixture of isomers) [Compound 55] | > 10
60 | COc1ccc2c(c1)C(CC(=O)NC(CC1CCCCC1)C(=O)NC(CC1CCCCC1)C(N)=O)CC2=O (mixture of isomers) [Compound 35] | > 10
61 | COc1ccc2c(c1)C(CC(=O)N1Cc3ccccc3CC1C(N)=O)CC2=O (mixture of isomers) [Compound 25] | > 10
62 | CCCCC(NC(=O)CC1CC(=O)c2ccc(OC)cc21)C(=O)NC(CC(C)C)C(N)=O (mixture of isomers) [Compound 22] | > 10
